# Measured values reported in US20040157744A1, “Substituted fluoroalkoxyphenylsulfonyl-amino(thio)carbonyltriazolino(thi)ones” (priority 2001, published 2004).
# Key:
# [1] = tested on: weeds; experiment: Post-emergence test, action against weeds; type: in vivo
# Method: (§1) Solvent: 5 parts by weight of acetone
# (§2) Emulsifier: 1 part by weight of alkylaryl polyglycol ether
# (§3) To produce a suitable preparation of active compound, 1 part by weight of active compound is mixed with the stated amount of solvent, the stated amount of emulsifier is added and the concentrate is diluted with water to the desired concentration.
# (§4) Test plants of a height of 5-15 cm are sprayed with the preparation of active compound such that the particular amounts of active compound desired are applied per unit area. The concentration of the spray liquor is chosen such that the particular amounts of active compound desired are applied in 10001 of water/ha.
# (§5) After three weeks, the degree of damage to the plants is rated in % damage in comparison to the development of the untreated control.
# (§6) 0%=no effect (like untreated control)
# [2] = tested on: Solanum; experiment: Pre-emergence test, Solanum; type: in vivo; conditions: after three weeks
# Method: as §1, §2, §3
# (§7) Seeds of the test plants are sown in normal soil. After 24 hours, the soil is sprayed with the preparation of active compounds such that the particular amount of active compound desired is applied per unit area. The concentration of active compound in the spray liquor is chosen such that the particular amount of active compound desired is applied in 1000 litres of water per hectare.
# (§8) After three weeks, the degree of damage to the plants is rated in % damaged in comparison to the development of the untreated control. The figures denote:
# as §6
# [3] = tested on: weeds; experiment: Pre-emergence test, action against weeds; type: in vivo
# Method: as §1, §2, §3, §7, §8, §6
# [4] = tested on: Matricaria; experiment: Post-emergence test, Matricaria; type: in vivo; conditions: 15 g ai/ha, after three weeks
# Method: as §1, §2, §3, §4, §5, §6
# [5] = tested on: Amaranthus; experiment: Pre-emergence test, Amaranthus; type: in vivo; conditions: after three weeks
# Method: as §1, §2, §3, §7, §8, §6
# [6] = tested on: Viola; experiment: Pre-emergence test, Viola; type: in vivo; conditions: after three weeks
# Method: as §1, §2, §3, §7, §8, §6
# [7] = tested on: Amaranthus; experiment: Post-emergence test, Amaranthus; type: in vivo; conditions: 15 g ai/ha, after three weeks
# Method: as §1, §2, §3, §4, §5, §6
# [8] = tested on: Matricaria; experiment: Pre-emergence test, Matricaria; type: in vivo; conditions: after three weeks
# Method: as §1, §2, §3, §7, §8, §6
# [9] = tested on: Setaria; experiment: Post-emergence test, Setaria; type: in vivo; conditions: 15 g ai/ha, after three weeks, vs untreated control (Table B-1)
# Method: as §1, §2, §3, §4, §5, §6
# [10] = tested on: Alopecurus; experiment: Pre-emergence test, Alopecurus; type: in vivo; conditions: after three weeks
# Method: as §1, §2, §3, §7, §8, §6
# [11] = tested on: Xanthium; experiment: Post-emergence test, Xanthium; type: in vivo; conditions: 15 g ai/ha, after three weeks, vs untreated control (Table B-1)
# Method: as §1, §2, §3, §4, §5, §6
# [12] = tested on: Stellaria; experiment: Post-emergence test, Stellaria; type: in vivo; conditions: 15 g ai/ha, after three weeks
# Method: as §1, §2, §3, §4, §5, §6
# [13] = tested on: Abutilon; experiment: Post-emergence test, Abutilon; type: in vivo; conditions: 15 g ai/ha, after three weeks
# Method: as §1, §2, §3, §4, §5, §6
# [14] = tested on: Echinochloa; experiment: Post-emergence test, Echinochloa; type: in vivo; conditions: 15 g ai/ha, after three weeks, vs untreated control (Table B-2)
# Method: as §1, §2, §3, §4, §5, §6
# [15] = tested on: Alopecurus; experiment: Post-emergence test, Alopecurus; type: in vivo; conditions: 15 g ai/ha, after three weeks, vs untreated control (Table B-2)
# Method: as §1, §2, §3, §4, §5, §6
# [16] = tested on: Lolium; experiment: Post-emergence test, Lolium; type: in vivo; conditions: 15 g ai/ha, after three weeks, vs untreated control (Table B-2)
# Method: as §1, §2, §3, §4, §5, §6
# [17] = tested on: Wheat; experiment: Pre-emergence test, Wheat; type: in vivo; conditions: after three weeks
# Method: as §1, §2, §3, §7, §8, §6
# [18] = tested on: Barley; experiment: Pre-emergence test, Barley; type: in vivo; conditions: 4 g ai/ha, after three weeks, vs untreated control (Table A-2)
# Method: as §1, §2, §3, §7, §8, §6
# [19] = tested on: Galium; experiment: Pre-emergence test, Galium; type: in vivo; conditions: 30 g ai/ha, after three weeks
# Method: as §1, §2, §3, §7, §8, §6
# [20] = tested on: Stellaria; experiment: Pre-emergence test, Stellaria; type: in vivo; conditions: 30 g ai/ha, after three weeks
# Method: as §1, §2, §3, §7, §8, §6
# [21] = tested on: Lolium; experiment: Pre-emergence test, Lolium; type: in vivo; conditions: 30 g ai/ha, after three weeks
# Method: as §1, §2, §3, §7, §8, §6
# [22] = tested on: Echinochloa; experiment: Pre-emergence test, Echinochloa; type: in vivo; conditions: 30 g ai/ha, after three weeks
# Method: as §1, §2, §3, §7, §8, §6
# [23] = tested on: Sugar beet; experiment: Pre-emergence test, Sugar beet; type: in vivo; conditions: 30 g ai/ha, after three weeks, vs untreated control (Table A-5)
# Method: as §1, §2, §3, §7, §8, §6
# [24] = 8 g ai/ha, vs untreated control (Table A-1)
# [25] = vs untreated control (Table B-1)
# [26] = vs untreated control (Table B-2)
# [27] = 4 g ai/ha, vs untreated control (Table A-2)
# [28] = vs untreated control (Table A-3)
# [29] = 30 g ai/ha, vs untreated control (Table A-3)
# [30] = vs untreated control (Table A-4)
# [31] = 30 g ai/ha, vs untreated control (Table A-4)
# [32] = vs untreated control (Table A-5)
# [33] = 30 g ai/ha, vs untreated control (Table A-5)
structure (smiles),measurement,setting,value
"CCc1ccccc1S(=O)(=O)N(OCCF)C(=O)n1nc(C)n(C2CC2)c1=O [Ex. 1, 4-cyclopropyl-5-methyl-2-[(2-fluoro-ethoxy)-6-ethyl-phenylsulphonylaminocarbonyl]-2,4-dihydro-3H-1,2,4-triazol-3-one]",melting point,,147 °C
CCCOc1cccc(OCCF)c1S(=O)(=O)NC(=O)n1nc(OCC)n(C)c1=O [Ex. 32],action against weeds,[1],very strong action
same,"degree of damage, Solanum",[2]; [24],100%
same,action against weeds,[3],very strong action
same,"degree of damage, Matricaria",[4]; [25],100%
same,"degree of damage, Amaranthus",[5]; [24],100%
same,"degree of damage, Viola",[6]; [24],100%
same,"degree of damage, Amaranthus",[7]; [25],100%
same,"degree of damage, Matricaria",[8]; [24],100%
same,"degree of damage, Setaria",[9],95%
same,"degree of damage, Alopecurus",[10]; [24],100%
same,"degree of damage, Xanthium",[11],100%
same,"degree of damage, Stellaria",[12]; [25],100%
same,melting point,,132 °C
same,"degree of damage, Abutilon",[13]; [25],100%
CCOc1cccc(OCCF)c1S(=O)(=O)NC(=O)n1nc(OCC)n(C)c1=O [Ex. 33],"degree of damage, Echinochloa",[14],100%
same,action against weeds,[1],very strong action
same,"degree of damage, Matricaria",[4]; [26],100%
same,"degree of damage, Amaranthus",[7]; [26],100%
same,"degree of damage, Alopecurus",[15],95%
same,"degree of damage, Lolium",[16],95%
same,"degree of damage, Stellaria",[12]; [26],100%
same,melting point,,157 °C
same,"degree of damage, Abutilon",[13]; [26],100%
CCCOc1nn(C(=O)NS(=O)(=O)c2c(OCC)cccc2OCCF)c(=O)n1C [Ex. 34],"degree of damage, Solanum",[2]; [27],95%
same,action against weeds,[3],very strong action
same,"degree of damage, Amaranthus",[5]; [27],95%
same,"degree of damage, Viola",[6]; [27],95%
same,"degree of damage, Wheat",[17]; [27],0%
same,"degree of damage, Matricaria",[8]; [27],100%
same,"degree of damage, Alopecurus",[10]; [27],100%
same,"degree of damage, Barley",[18],10%
same,melting point,,123 °C
COc1nn(C(=O)NS(=O)(=O)c2c(C)cccc2OCCCF)c(=O)n1C [Ex. 41],"degree of damage, Galium",[19]; [28],100%
same,"degree of damage, Stellaria",[20]; [28],100%
same,action against weeds,[3],very strong action
same,"degree of damage, Amaranthus",[5]; [29],95%
same,"degree of damage, Wheat",[17]; [29],0%
same,"degree of damage, Matricaria",[8]; [29],100%
same,"degree of damage, Lolium",[21]; [28],90%
same,melting point,,120 °C
same,"degree of damage, Echinochloa",[22]; [28],95%
CCc1cccc(OCCCF)c1S(=O)(=O)NC(=O)n1nc(CC)n(C2CC2)c1=O [Ex. 93],"degree of damage, Galium",[19]; [30],95%
same,"degree of damage, Stellaria",[20]; [30],100%
same,action against weeds,[3],very strong action
same,"degree of damage, Amaranthus",[5]; [31],100%
same,"degree of damage, Viola",[6]; [31],100%
same,"degree of damage, Lolium",[21]; [30],95%
same,"degree of damage, Alopecurus",[10]; [31],95%
same,melting point,,140 °C
same,"degree of damage, Echinochloa",[22]; [30],100%
CCCc1cccc(OCCCF)c1S(=O)(=O)NC(=O)n1nc(N(C)C)n(C2CC2)c1=O [Ex. 114],"degree of damage, Galium",[19]; [32],80%
same,"degree of damage, Stellaria",[20]; [32],95%
same,action against weeds,[3],very strong action
same,"degree of damage, Amaranthus",[5]; [33],95%
same,"degree of damage, Sugar beet",[23],0%
same,"degree of damage, Lolium",[21]; [32],95%
same,"degree of damage, Alopecurus",[10]; [33],95%
same,melting point,,130 °C
